Laboratory results: ChEMBL document CHEMBL5120812, “Cytotoxic Nitrobenzoyl Sesquiterpenoids from an Antarctica Sponge-Derived Aspergillus insulicola” (J Nat Prod, 2022)
pIC50: −log10 of the molar value. Structures can show the parent of a compound that is named as a salt.

Key:
Assay type in all cases: functional, cell-based
ASPC1 = assay: Cytotoxicity against human ASPC1 cells assessed as inhibition of cell growth incubated for 72 hrs by SRB assay; conditions: ASPC1, 72 h
MDA-MB-231 = assay: Cytotoxicity against human MDA-MB-231 cells assessed as inhibition of cell growth incubated for 72 hrs by SRB assay; conditions: MDA-MB-231, 72 h
PANC-1 = assay: Cytotoxicity against human PANC-1 cells assessed as inhibition of cell growth incubated for 72 hrs by SRB assay; conditions: PANC-1, 72 h

Structure (SMILES): C[C@]1(COC(=O)CCCCCCC/C=C/C(=O)O)CCC[C@]2(C)[C@H]3COC(=O)C3=C[C@@H](OC(=O)c3ccc([N+](=O)[O-])cc3)[C@@H]12
- pIC50 (ASPC1): < 4.52
- pIC50 (MDA-MB-231): < 4.52
- pIC50 (PANC-1): < 4.52

Structure (SMILES): COc1cccc2c1C(=O)c1c(O)c3c(c(O)c1C2=O)C[C@@](O)(C(=O)CO)C[C@@H]3O[C@H]1C[C@H](N)[C@H](O)[C@H](C)O1 [DOXORUBICIN HYDROCHLORIDE]
- pIC50 (ASPC1): 6.52
- pIC50 (MDA-MB-231): 6.70
- pIC50 (PANC-1): 6.05
